Series [1] is described as follows: Room temperature stability of crystalline as compared to amorphous drug substance (water content, Karl Fischer). The format is physicochemical. To be noted: for Assay / Total Impurities: Room temperature. The source says:
The Drug Substance (DS) Hydrocortisone Sodium Phosphate (HSP) is a sodium salt of phosphate ester of hydrocortisone. The high-water solubility of HSP enables the development of aqueous injectable solutions. The DS meets the requirements of USP monograph, “Hydrocortisone sodium phosphate, USP,” except for loss on drying (LOD) specification, instead the Karl Fischer method is used to test water content which meets the British Pharmacopoeia specification. This is because the crystalline form obtained through the manufacturing process is a crystalline hydrate. To meet the USP LOD specification of NMT 5%, the manufacturing process would need to involve a lyophilization step which leads to the formation of an amorphous form of HSP. […] The water content test method utilizes the British Pharmacopoiea (BP) HSP monograph semi-micro water content method instead of the less specific USP HSP monograph water content Loss on Drying method. […]

A short description of series [2]: Genotoxicity assessment (ICH M7).
A short description of series [3]: Stability study of HCP prototype formulations in PFS at 25° C. and 40° C. (appearance, pH, assay and related substances by stability indicating HPLC). Conditions: accelerated storage 40° C., effect of pH.
Series [4] in a line: Forced degradation of hydrocortisone sodium phosphate API under stress conditions (0.1 N HCl, 0.1 N NaOH, dry heat). The format is physicochemical. To be noted: 3 stress conditions: 0.1 N HCl, qualitative. As for the experimental part:
To develop this method, Hydrocortisone sodium phosphate API was kept under stress conditions. These stress conditions included treatment with 0.1 N HCl, 0.1 N NaOH and dry heat. This was performed to investigate the nature of API and its compatibility with the stress conditions. It also helped generate degradation products to assess the specificity of the HPLC method under development. Information on degradation products and the conditions used to generate them was used to optimize the method for better resolution of such degradation products on chromatogram. FIGS. 3A-3C show chromatograms of HCP under stress conditions.
The proportions in which the degradants formed depended on the stress condition. Stress studies performed on the API were done for qualitative purpose only.

Take `C[C@]12CCC(=O)C=C1CC[C@@H]1[C@@H]2[C@@H](O)C[C@@]2(C)[C@H]1CC[C@]2(O)C(=O)COP(=O)(O)O` [Hydrocortisone Sodium Phosphate]: the Assay in series [1] (Time 0) was 100.9%; in series [1] (Time 3 mo.), 101.4%; in series [1] (Time 6 mo.), 99.5%. For the same compound, the “Total Impurities” value turned out to be 0.00% in series [1] (Time 0), 0.06% in series [1] (Time 3 mo.) and 0.00% in series [1] (Time 6 mo.).

Regarding `C[C@]12CCC(=O)C=C1CC[C@@H]1[C@@H]2[C@@H](O)C[C@@]2(C)[C@H]1CC[C@]2(O)C(=O)COP(=O)(O)O` [Hydrocortisone sodium phosphate], the genotoxicity assessment entry in series [2] was “not a genotoxic product”. Also, the susceptibility to hydrolysis result in series [3] was “prone to general acid-catalyzed hydrolysis at pH<7.5”.

With `C[C@]12CCC(=O)C=C1CC[C@@H]1[C@@H]2[C@@H](O)C[C@@]2(C)[C@H]1CC[C@]2(O)C(=O)COP(=O)([O-])[O-].[Na+].[Na+]`, the Assay was 97.8% in series [1] (Time 0), 99.0% in series [1] (Time 3 mo.) and 96.5% in series [1] (Time 6 mo.). Moreover, the “Total Impurities” value in series [1] (Time 0) is 0.20%; in series [1] (Time 3 mo.) it was 1.1%; in series [1] (Time 6 mo.) it was 1.5%.

On to `C[C@]12CCC(=O)C=C1CC[C@@H]1[C@@H]2[C@@H](O)C[C@@]2(C)[C@H]1CC[C@]2(O)C(=O)COP(=O)(O)O` [hydrocortisone sodium phosphate], for which, in series [1] (room temperature), the hygroscopicity result was “highly hygroscopic” and the “stability compared to crystalline form” value is listed as “not stable as compared to crystalline form”.

On to Hydrocortisone sodium phosphate, for which, in series [4], the forced degradation outcome was “formation of Hydrocortisone, other common degradants”.

(Values after patent US12102643B2, “Aqueous pharmaceutical formulation of hydrocortisone sodium phosphate and monothioglycerol” (ANTARES PHARMA, INC., priority 2022, dated 2024).)
